According to EP2402020B1, “Pharmaceutical composition comprising extracts of Bupleurum krylovianum for use in the treatment of arthritis and rheumatoid arthritis” (Industrial Technology Research Institute, priority 2010, dated 2012):
Converted amounts (≈) assume the structure as drawn. Values belong to the compound of their own block, whether it stands above or below them.

Tests used:
[1] = tested on: TNF-α; assay: TNF-α excretion by LPS-stimulated, PMA-activated U937 cells (ELISA); format: cell-based, human; settings: activated U937, 30 minutes preincubation, LPS stimulation 4 hours, supernatant ELISA
Procedure: The cell line, U937 (human monocyte cell line), was incubated in RPMI medium containing 50 ng/ml PMA (phorbol 12-myristate 13-acetate) (Sigma) and 10% fetal bovine serum (Moor et. al., Roswell Park Memorial Institute) for 24 hours. The cell line was then moved to the RPMI medium without PMA for further 48 hours. The activated U937 was seeded into a 96-well plate in a concentration of 1.6×10^5 cell/well. The wells were added 12.5 µg/ml, 25 µg/ml, 50 µg/ml and 100 µg/ml of kaerophyllin and 1 µg/ml, 3 µg/ml, 10 µg/ml and 30 µg/ml of isokaerphyllin and 10 µl of buffer, respectively. Each well was adjusted to a final volume of 190 µl. The plate was reacted under 37°C for 30 minutes. Each well was added 10 µl of 20 µg/ml LPS to stimulate cells. After 4 hours under 37°C, the plate was centrifuged to collect the supernatants.
The amount of TNF-α in the supernatant was measured by ELISA (R&D System®) based on the control (DMSO). Meanwhile, the cell viability was measured by MTT assay (Sigma).

[2] = tested on: IL-6; assay: IL-6 excretion by LPS-stimulated, PMA-activated U937 cells (ELISA); format: cell-based, human; settings: activated U937, 30 minutes preincubation, LPS stimulation 16-18 hours, supernatant ELISA
Procedure: The cell line, U937, was cultured like Example 13. The activated U937 was /s then seeded in a 96-well plate in a concentration of 1.6×10^5 cell/well. The wells were added 6.3 µg/ml, […], 25 µg/ml and 50 µg/ml of kaerophyllin and 3.8 µg/ml, 7.5 µg/ml, 15 µg/ml and 30 µg/ml of isokaerphyllin and 10 µl of buffer, respectively. Each well was adjusted to a final volume of 190 µl. The plate was put under 37°C for 30 minutes. Each well was added 10µl of 20 µg/ml LPS to stimulate cells. After 16-18 hours under 37°C, the plate was centrifuged to collect the supernatants.
The amount of IL-6 in the supernatant was measured by ELISA (R&D System®) based on the control (DMSO). Meanwhile, the cell viability was measured by MTT assay (Sigma).

[3] = tested on: TNF-α; assay: TNBS enteritis mouse model: TNF-α in colon infusion; format: in vivo, BABL/c mice; settings: 0.6mg/kg fed + 1.75mg of TNBS into the colon; colon infusion after 48 hours; negative value = enhanced excretion
Excerpt: (§1) The BABL/c mice were categorized into 4 groups. Each group had 6 […].

[4] = tested on: IL-6; assay: TNBS enteritis mouse model: IL-6 in colon infusion; format: in vivo, BABL/c mice; settings: 0.6mg/kg fed + 1.75mg of TNBS into the colon; colon infusion after 48 hours; negative value = enhanced excretion
Excerpt: as §1

[5] = tested on: carrageenan induced hindpaw edema; assay: Carrageenan induced hindpaw edema in a rat model (plethysmometer); format: in vivo, Long-Evan rats; settings: 3 mg/kg fed 1 hour before carrageenan (positive control)
Procedure: Long-Evan rats were fed with the extract (a) in Example 5 (i) in an amount of 250mg/kg, 500 mg/kg, 1000mg/kg, respectively. The positive control was fed with 3mg/kg of indomethacin (NSAID). The negative control was fed with 10ml/kg of 2% Tween 80 as a carrier After 1 hour, the rats were injected 0.1ml of 1% carrageenan on the left hindpaw. The volume of the rat's left hindpaw was measured by plethysmometer (Stoelting) at the 0, 1.5th, and 3rd hour after injection. The inhibition was calculated by the formula :
Inhibition (%)=(Nt-Nv)/Nv × 100
In the formula, Nt represents the left hindpaw volume of the rat fed with the ethanol extract; Nv represents the left hindpaw of the rat fed with the carrier.

IC50 ([1]; Homo sapiens, U-937, read-out: IC50 value (inhibition of the excretion of TNF-α)): 44 ± 5 µg/mL (≈ 119 µM)
IC50 ([2]; Homo sapiens, U-937, read-out: IC50 value (inhibition of the excretion of IL-6)): 13 ± 2 µg/mL (≈ 35.3 µM)
Compound: COc1ccc(/C=C2/C(=O)OC[C@@H]2Cc2ccc3c(c2)OCO3)cc1OC [kaerophyllin, trans-(3,4-dimethoxybenzylidene)-β-(3,4-methylenedioxylbenzyl)-γ-butyrolactone]

Compound: C[C@@H]1C[C@H]2[C@@H]3CCC4=CC(=O)C=C[C@]4(C)[C@@]3(F)[C@@H](O)C[C@]2(C)[C@@]1(O)C(=O)CO [DEX, dexamethasone]
Inhibition of TNF-α(%) [3]: 9%
Inhibition of IL-6 (%) [4]: -55%

Compound: cis-(3,4-dimethoxybenzylidene)-β-(3,4-methylenedioxylbenzyl)-γ-butyrolactone [isokaerophyllin]
IC50 value (inhibition of the excretion of TNF-α) [1]: 18 ± 4 µg/mL
IC50 value (inhibition of the excretion of IL-6) [2]: 24 ± 6 µg/mL

Compound: COc1ccc2c(c1)c(CC(=O)O)c(C)n2C(=O)c1ccc(Cl)cc1 [indomethacin]
Inhibition at 0 hour (%) ([5]; left hindpaw volume at 0 hour): 0%
Inhibition at the 1.5th hour (%) ([5]; left hindpaw volume at 1.5th hour): 21%
Inhibition at the 3rd hour (%) ([5]; left hindpaw volume at 3rd hour): 52%
